Laboratory results published in the kinase profiling compilation of Christmann-Franck et al. (2016).

Columns and labels:
Assay in all cases: Caliper, Mobility shift assay off-chip
[1] = target: PRKD1 (human) (UniProt Q15139)
[2] = target: RPS6KA4 KD1 KD2 (human) (UniProt O75676)
[3] = target: ROCK2 (human) (UniProt O75116)
[4] = target: AURKA (human) (UniProt O14965)
[5] = target: SGK1 (human) (UniProt O00141)
[6] = target: MAPK1 (human) (UniProt P28482)
[7] = target: PRKCB1 (human) (UniProt P05771)
[8] = target: NEK2 (human) (UniProt P51955)
Sequence of NEK2 (human) (P51955 whole entry, looked up): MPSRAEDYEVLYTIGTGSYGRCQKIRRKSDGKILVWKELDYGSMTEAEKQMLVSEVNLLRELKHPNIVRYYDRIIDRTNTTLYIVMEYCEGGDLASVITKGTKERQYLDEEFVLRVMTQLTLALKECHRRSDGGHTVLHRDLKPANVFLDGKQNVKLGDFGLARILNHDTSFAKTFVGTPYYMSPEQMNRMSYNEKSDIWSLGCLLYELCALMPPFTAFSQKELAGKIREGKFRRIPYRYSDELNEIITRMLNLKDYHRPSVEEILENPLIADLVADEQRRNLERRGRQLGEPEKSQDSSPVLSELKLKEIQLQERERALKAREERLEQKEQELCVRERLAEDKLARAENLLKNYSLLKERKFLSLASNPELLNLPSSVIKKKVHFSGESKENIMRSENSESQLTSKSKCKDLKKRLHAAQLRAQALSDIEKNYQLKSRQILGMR

[9] = target: RPS6KB1 (human) (UniProt P23443)
[10] = target: MAP4K4 (human) (UniProt O95819)
[11] = target: MARK1 (human) (UniProt Q9P0L2)
Sequence of MARK1 (human) (Q9P0L2 whole entry, looked up): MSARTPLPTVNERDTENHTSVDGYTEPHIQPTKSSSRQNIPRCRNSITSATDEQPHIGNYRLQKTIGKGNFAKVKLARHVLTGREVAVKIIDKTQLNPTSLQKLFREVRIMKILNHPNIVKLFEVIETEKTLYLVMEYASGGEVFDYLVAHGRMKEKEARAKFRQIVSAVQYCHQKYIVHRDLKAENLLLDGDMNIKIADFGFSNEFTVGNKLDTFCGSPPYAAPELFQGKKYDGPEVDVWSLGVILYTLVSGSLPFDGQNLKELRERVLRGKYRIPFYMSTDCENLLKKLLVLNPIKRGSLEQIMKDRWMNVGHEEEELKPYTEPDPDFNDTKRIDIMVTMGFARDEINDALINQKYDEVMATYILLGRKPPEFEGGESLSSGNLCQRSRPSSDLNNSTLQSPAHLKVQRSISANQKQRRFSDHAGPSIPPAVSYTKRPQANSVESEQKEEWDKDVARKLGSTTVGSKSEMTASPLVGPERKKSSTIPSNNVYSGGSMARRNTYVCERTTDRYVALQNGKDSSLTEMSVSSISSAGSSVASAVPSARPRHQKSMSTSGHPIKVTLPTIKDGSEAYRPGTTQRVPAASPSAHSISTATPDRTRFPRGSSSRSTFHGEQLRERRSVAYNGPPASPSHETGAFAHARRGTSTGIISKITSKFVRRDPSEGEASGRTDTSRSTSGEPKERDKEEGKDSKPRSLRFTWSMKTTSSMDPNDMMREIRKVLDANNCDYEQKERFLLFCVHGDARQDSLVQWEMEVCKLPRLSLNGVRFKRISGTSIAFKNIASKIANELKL

[12] = target: DYRK1A (human) (UniProt Q13627)
[13] = target: SGK3 (human) (UniProt Q96BR1)
[14] = system: ABL1 (human), P00519 [T315I]
[15] = target: PRKCH (human) (UniProt P24723)
[16] = target: CAMK4 (human) (UniProt Q16566)
[17] = target: ABL1 (human) (UniProt P00519)
[18] = system: FGFR2 (human), P21802 [N549H]
[19] = system: ABL1 (human), P00519 [Q252H]
[20] = target: ABL2 (human) (UniProt P42684)
[21] = target: TSSK1B (human) (UniProt Q9BXA7)
Sequence of TSSK1B (human) (Q9BXA7 whole entry, looked up): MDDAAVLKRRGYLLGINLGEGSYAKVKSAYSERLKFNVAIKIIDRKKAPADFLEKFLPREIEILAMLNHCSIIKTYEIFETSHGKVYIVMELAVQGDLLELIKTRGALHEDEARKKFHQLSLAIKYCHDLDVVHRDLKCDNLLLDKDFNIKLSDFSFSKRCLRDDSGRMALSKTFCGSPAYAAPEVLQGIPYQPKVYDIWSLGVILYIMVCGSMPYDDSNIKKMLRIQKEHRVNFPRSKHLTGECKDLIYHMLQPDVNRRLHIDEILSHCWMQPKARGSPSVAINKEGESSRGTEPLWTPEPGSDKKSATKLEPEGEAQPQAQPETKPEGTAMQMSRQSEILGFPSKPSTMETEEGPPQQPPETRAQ

[22] = target: INSR (human) (UniProt P06213)
[23] = target: HCK (human) (UniProt P08631)
Sequence of HCK (human) (P08631 whole entry, looked up): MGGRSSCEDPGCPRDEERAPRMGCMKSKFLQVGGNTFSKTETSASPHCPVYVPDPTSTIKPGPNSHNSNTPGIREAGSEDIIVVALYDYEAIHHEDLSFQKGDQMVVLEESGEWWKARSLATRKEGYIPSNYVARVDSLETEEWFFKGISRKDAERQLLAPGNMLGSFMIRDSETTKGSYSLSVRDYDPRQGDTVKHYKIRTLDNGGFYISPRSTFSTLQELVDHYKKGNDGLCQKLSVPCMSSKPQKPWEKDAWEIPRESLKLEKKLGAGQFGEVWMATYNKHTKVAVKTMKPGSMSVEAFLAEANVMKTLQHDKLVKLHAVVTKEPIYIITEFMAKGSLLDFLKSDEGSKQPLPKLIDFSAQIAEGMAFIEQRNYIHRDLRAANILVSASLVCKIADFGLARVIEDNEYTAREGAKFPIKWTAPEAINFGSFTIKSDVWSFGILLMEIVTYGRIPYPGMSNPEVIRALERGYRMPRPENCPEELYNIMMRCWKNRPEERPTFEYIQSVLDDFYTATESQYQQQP

[24] = target: PRKCB2 (human) (UniProt P05771)
[25] = target: PRKCA (human) (UniProt P17252)
[26] = target: PDGFRA (human) (UniProt P16234)
Sequence of PDGFRA (human) (P16234 whole entry, looked up): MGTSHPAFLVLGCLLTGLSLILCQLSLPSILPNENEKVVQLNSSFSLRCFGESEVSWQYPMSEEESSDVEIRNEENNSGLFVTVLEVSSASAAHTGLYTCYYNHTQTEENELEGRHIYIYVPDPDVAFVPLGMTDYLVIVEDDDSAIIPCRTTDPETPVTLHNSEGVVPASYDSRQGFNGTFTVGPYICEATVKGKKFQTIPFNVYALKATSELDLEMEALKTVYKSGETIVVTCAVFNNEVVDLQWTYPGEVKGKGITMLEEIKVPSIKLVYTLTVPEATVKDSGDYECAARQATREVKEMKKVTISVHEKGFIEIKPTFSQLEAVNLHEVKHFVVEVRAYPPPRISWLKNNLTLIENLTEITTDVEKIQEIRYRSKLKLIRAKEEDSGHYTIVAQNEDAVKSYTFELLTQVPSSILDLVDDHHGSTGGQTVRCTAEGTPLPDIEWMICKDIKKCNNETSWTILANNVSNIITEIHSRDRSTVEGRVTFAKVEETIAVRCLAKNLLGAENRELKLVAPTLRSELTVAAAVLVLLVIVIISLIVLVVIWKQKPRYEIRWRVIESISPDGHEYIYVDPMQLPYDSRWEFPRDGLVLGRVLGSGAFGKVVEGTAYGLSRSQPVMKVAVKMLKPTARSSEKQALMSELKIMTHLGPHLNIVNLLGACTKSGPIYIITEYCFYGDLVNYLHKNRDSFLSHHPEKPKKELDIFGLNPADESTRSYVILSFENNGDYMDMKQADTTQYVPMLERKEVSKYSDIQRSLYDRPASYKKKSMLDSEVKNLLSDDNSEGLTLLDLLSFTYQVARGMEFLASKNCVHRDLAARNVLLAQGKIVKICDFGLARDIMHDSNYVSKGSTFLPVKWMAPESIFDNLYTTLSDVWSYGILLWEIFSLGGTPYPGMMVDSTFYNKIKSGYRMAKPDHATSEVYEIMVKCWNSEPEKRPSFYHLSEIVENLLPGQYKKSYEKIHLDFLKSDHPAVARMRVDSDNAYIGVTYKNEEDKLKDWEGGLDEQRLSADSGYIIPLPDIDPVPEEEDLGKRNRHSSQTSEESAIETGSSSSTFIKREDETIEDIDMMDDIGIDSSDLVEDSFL

[27] = target: FER (human) (UniProt P16591)
[28] = target: CAMK2B (human) (UniProt Q13554)
[29] = target: PIM1 (human) (UniProt P11309)
[30] = target: FYN (human) (UniProt P06241)
[31] = target: CHEK2 (human) (UniProt O96017)
Sequence of CHEK2 (human) (O96017 whole entry, looked up): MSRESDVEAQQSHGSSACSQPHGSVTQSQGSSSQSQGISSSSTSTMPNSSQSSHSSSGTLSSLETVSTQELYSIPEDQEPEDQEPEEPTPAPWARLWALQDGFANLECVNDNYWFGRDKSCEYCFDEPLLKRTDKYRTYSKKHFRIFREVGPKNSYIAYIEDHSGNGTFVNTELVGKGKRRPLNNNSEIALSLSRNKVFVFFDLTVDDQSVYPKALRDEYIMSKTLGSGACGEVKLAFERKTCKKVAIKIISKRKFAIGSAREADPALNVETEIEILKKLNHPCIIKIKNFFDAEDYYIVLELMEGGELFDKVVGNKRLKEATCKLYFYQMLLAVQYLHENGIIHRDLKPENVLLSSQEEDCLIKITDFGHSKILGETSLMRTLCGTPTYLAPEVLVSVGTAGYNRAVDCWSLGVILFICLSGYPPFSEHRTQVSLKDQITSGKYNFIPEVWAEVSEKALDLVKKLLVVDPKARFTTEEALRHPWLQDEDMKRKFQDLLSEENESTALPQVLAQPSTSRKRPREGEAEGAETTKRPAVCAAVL

[32] = target: FGFR2 (human) (UniProt P21802)
[33] = target: PRKACA (human) (UniProt P17612)
[34] = target: CDK2 (human) (UniProt P24941)

Sequence of MAPK1 (human) (P28482 whole entry, looked up): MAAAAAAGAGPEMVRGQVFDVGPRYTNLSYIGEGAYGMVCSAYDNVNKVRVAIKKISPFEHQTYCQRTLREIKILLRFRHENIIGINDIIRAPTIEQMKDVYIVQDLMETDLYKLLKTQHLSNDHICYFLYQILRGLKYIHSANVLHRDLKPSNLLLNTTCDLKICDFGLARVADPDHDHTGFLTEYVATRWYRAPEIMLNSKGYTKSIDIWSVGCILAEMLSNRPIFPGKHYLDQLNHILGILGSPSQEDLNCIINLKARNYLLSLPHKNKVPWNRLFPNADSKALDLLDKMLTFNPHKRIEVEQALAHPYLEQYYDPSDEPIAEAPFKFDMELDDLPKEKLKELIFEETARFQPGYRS
Sequence of PRKD1 (human) (Q15139 whole entry, looked up): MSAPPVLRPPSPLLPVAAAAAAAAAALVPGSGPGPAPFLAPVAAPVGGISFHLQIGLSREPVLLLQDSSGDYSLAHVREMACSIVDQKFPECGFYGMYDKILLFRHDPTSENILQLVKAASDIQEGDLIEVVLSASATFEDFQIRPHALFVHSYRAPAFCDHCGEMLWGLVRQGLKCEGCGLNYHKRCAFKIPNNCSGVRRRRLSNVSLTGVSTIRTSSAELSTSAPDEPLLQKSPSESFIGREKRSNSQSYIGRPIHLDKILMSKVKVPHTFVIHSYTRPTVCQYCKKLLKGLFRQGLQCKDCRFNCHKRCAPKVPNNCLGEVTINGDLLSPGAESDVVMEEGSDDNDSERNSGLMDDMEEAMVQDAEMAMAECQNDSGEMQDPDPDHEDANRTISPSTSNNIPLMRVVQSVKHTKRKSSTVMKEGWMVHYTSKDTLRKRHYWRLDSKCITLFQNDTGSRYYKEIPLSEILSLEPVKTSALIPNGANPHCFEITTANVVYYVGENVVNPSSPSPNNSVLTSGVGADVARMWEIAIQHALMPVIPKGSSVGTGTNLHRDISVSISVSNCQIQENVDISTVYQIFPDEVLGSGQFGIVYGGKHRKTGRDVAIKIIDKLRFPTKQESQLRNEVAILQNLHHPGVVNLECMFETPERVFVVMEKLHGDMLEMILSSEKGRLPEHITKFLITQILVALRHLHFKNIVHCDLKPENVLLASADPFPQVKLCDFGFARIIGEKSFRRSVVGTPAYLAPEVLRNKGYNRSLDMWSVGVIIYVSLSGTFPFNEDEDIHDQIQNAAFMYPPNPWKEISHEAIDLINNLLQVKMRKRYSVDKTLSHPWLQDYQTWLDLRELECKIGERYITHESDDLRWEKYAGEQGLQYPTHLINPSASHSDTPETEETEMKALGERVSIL

Compound: CN(c1ccc2ccc3ncc(-c4cnn(C)c4)cc3c(=O)c2c1)S(=O)(=O)NCc1ccccn1
- inhibition ([1]; compound 0.1 µM): -0.4%
- inhibition ([1]; compound 1.0 µM): 1.9%
- inhibition ([2]; compound 0.1 µM): -2.2%
- inhibition ([2]; compound 1.0 µM): 7.4%
- inhibition ([3]; compound 0.1 µM): 21.3%
- inhibition ([3]; compound 1.0 µM): 20.8%
- inhibition ([4]; compound 0.1 µM): 39.7%
- inhibition ([4]; compound 1.0 µM): 87.5%
- inhibition ([5]; compound 0.1 µM): -0.4%
- inhibition ([5]; compound 1.0 µM): 6.4%
- inhibition ([6]; compound 0.1 µM): -4%
- inhibition ([6]; compound 1.0 µM): 1.8%
- inhibition ([7]; compound 0.1 µM): -7.7%
- inhibition ([7]; compound 1.0 µM): 8.8%
- inhibition ([8]; compound 0.1 µM): -6%
- inhibition ([8]; compound 1.0 µM): -4.9%
- inhibition ([9]; compound 0.1 µM): -1%
- inhibition ([9]; compound 1.0 µM): -6.2%
- inhibition ([10]; compound 0.1 µM): 18.6%
- inhibition ([10]; compound 1.0 µM): 56.3%
- inhibition ([11]; compound 0.1 µM): 6.6%
- inhibition ([11]; compound 1.0 µM): 16.4%
- inhibition ([12]; compound 0.1 µM): 7.9%
- inhibition ([12]; compound 1.0 µM): 40.1%
- inhibition ([13]; compound 0.1 µM): -5.3%
- inhibition ([13]; compound 1.0 µM): 1.1%
- inhibition ([14]; compound 0.1 µM): 3.3%
- inhibition ([14]; compound 1.0 µM): 41.1%
- inhibition ([15]; compound 0.1 µM): 10%
- inhibition ([15]; compound 1.0 µM): 3.2%
- inhibition ([16]; compound 0.1 µM): -0.2%
- inhibition ([16]; compound 1.0 µM): 8%
- inhibition ([17]; compound 0.1 µM): 8.2%
- inhibition ([17]; compound 1.0 µM): 36.3%
- inhibition ([18]; compound 0.1 µM): 16%
- inhibition ([18]; compound 1.0 µM): 57.6%
- inhibition ([19]; compound 0.1 µM): 6.9%
- inhibition ([19]; compound 1.0 µM): 51.8%
- inhibition ([20]; compound 0.1 µM): -2.4%
- inhibition ([20]; compound 1.0 µM): 18%
- inhibition ([21]; compound 0.1 µM): -4.8%
- inhibition ([21]; compound 1.0 µM): 8.1%
- inhibition ([22]; compound 0.1 µM): 3.4%
- inhibition ([22]; compound 1.0 µM): -0.3%
- inhibition ([23]; compound 0.1 µM): 9.4%
- inhibition ([23]; compound 1.0 µM): 14.6%
- inhibition ([24]; compound 0.1 µM): 2.8%
- inhibition ([24]; compound 1.0 µM): 8.1%
- inhibition ([25]; compound 0.1 µM): 0.1%
- inhibition ([25]; compound 1.0 µM): -10.6%
- inhibition ([26]; compound 0.1 µM): -13.5%
- inhibition ([26]; compound 1.0 µM): 31.2%
- inhibition ([27]; compound 0.1 µM): 24.1%
- inhibition ([27]; compound 1.0 µM): -2.5%
- inhibition ([28]; compound 0.1 µM): 5.9%
- inhibition ([28]; compound 1.0 µM): 12.1%
- inhibition ([29]; compound 0.1 µM): -2.7%
- inhibition ([29]; compound 1.0 µM): 2.1%
- inhibition ([30]; compound 0.1 µM): -0.3%
- inhibition ([31]; compound 0.1 µM): -1.5%
- inhibition ([31]; compound 1.0 µM): 6.9%
- inhibition ([32]; compound 0.1 µM): 29.4%
- inhibition ([32]; compound 1.0 µM): 76.6%
- inhibition ([33]; compound 0.1 µM): -11.5%
- inhibition ([33]; compound 1.0 µM): -3.3%
- inhibition ([34]; compound 0.1 µM): 3.1%
- inhibition ([34]; compound 1.0 µM): 4.8%

Compound: Cn1cc(-c2cnc3ccc4ccc(CS(=O)(=O)CCc5ccccn5)cc4c(=O)c3c2)cn1
- inhibition ([1]; compound 0.1 µM): -3.6%
- inhibition ([1]; compound 1.0 µM): -6.6%
- inhibition ([2]; compound 0.1 µM): -2.5%
- inhibition ([2]; compound 1.0 µM): -1.8%
- inhibition ([3]; compound 0.1 µM): -6.7%
- inhibition ([3]; compound 1.0 µM): -5.4%
- inhibition ([4]; compound 0.1 µM): 15.8%
- inhibition ([4]; compound 1.0 µM): 48%
- inhibition ([5]; compound 0.1 µM): 1.7%
- inhibition ([5]; compound 1.0 µM): -6.4%
- inhibition ([6]; compound 0.1 µM): -2.4%
- inhibition ([6]; compound 1.0 µM): -1.9%
- inhibition ([7]; compound 1.0 µM): 0.9%
- inhibition ([8]; compound 0.1 µM): -5.7%
- inhibition ([8]; compound 1.0 µM): -0.9%
- inhibition ([9]; compound 0.1 µM): -19.5%
- inhibition ([9]; compound 1.0 µM): -2.1%
- inhibition ([10]; compound 0.1 µM): -2%
- inhibition ([10]; compound 1.0 µM): 10.6%
- inhibition ([11]; compound 0.1 µM): 1.2%
- inhibition ([11]; compound 1.0 µM): -13.9%
- inhibition ([12]; compound 0.1 µM): -4.6%
- inhibition ([12]; compound 1.0 µM): -2.8%
- inhibition ([13]; compound 0.1 µM): -10.4%
- inhibition ([13]; compound 1.0 µM): 6.2%
- inhibition ([14]; compound 0.1 µM): 7.1%
- inhibition ([14]; compound 1.0 µM): 4.4%
- inhibition ([15]; compound 0.1 µM): -8.3%
- inhibition ([15]; compound 1.0 µM): -5.7%
- inhibition ([16]; compound 0.1 µM): -0.1%
- inhibition ([16]; compound 1.0 µM): 3.5%
- inhibition ([17]; compound 0.1 µM): 0.2%
- inhibition ([17]; compound 1.0 µM): 11.6%
- inhibition ([18]; compound 0.1 µM): 5.5%
- inhibition ([18]; compound 1.0 µM): 15.5%
- inhibition ([19]; compound 0.1 µM): 4.6%
- inhibition ([19]; compound 1.0 µM): 9.3%
- inhibition ([20]; compound 0.1 µM): -5.3%
- inhibition ([20]; compound 1.0 µM): 6.8%
- inhibition ([21]; compound 0.1 µM): 19.8%
- inhibition ([21]; compound 1.0 µM): -1.7%
- inhibition ([22]; compound 0.1 µM): 1.4%
- inhibition ([22]; compound 1.0 µM): 3.5%
- inhibition ([23]; compound 0.1 µM): -5.1%
- inhibition ([23]; compound 1.0 µM): 1.6%
- inhibition ([24]; compound 0.1 µM): -4.2%
- inhibition ([24]; compound 1.0 µM): -10.6%
- inhibition ([25]; compound 0.1 µM): 21.9%
- inhibition ([25]; compound 1.0 µM): -3%
- inhibition ([26]; compound 0.1 µM): -13%
- inhibition ([27]; compound 0.1 µM): -6.8%
- inhibition ([28]; compound 0.1 µM): 20.2%
- inhibition ([29]; compound 0.1 µM): -3.6%
- inhibition ([29]; compound 1.0 µM): -16.7%
- inhibition ([30]; compound 0.1 µM): -11.5%
- inhibition ([30]; compound 1.0 µM): -2.5%
- inhibition ([31]; compound 0.1 µM): -0.4%
- inhibition ([31]; compound 1.0 µM): 4.5%
- inhibition ([32]; compound 0.1 µM): 18.3%
- inhibition ([32]; compound 1.0 µM): 64.7%
- inhibition ([33]; compound 0.1 µM): -13.6%
- inhibition ([33]; compound 1.0 µM): 2.4%
- inhibition ([34]; compound 0.1 µM): -6.3%
- inhibition ([34]; compound 1.0 µM): -3.4%
